From the supplement of paper PMC10307832

What was measured:
Assay in all cases: relative viability (nuclei count vs DMSO), 5 days (fraction); higher = more cells survive
[1] = compound: CN1C=C(C2=CC=CC=C21)/C=C\3/C4=C(C=CC=N4)NC3=O + CC(C)C[C@H](NC(=O)[C@H](Cc1ccccc1)NC(=O)c1cnccn1)B(O)O [Bortezomib] (partner 0.002 µM)
Outline: (§1)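 After 5 days of treatment, lung cancer cells in 1536-well plates were fixed and stained in a single step (final 0.05% Triton X-100, 1% formaldehyde, 1 ug/ml Hoechst) and their nuclei counted on 4× images. Treatment had been applied by pin tool the day after seeding as one drug alone or as a fixed anchor-drug dose with five library-drug doses (not always all listed) in √10 steps. Relative viability is the nuclei count of treated wells divided by that of vehicle wells, and values are medians of duplicate plates.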

Trametinib + Palbociclib = compound: CC(=O)Nc1cccc(-n2c(=O)n(C3CC3)c(=O)c3c(Nc4ccc(I)cc4F)n(C)c(=O)c(C)c32)c1 [Trametinib] + CC(=O)c1c(C)c2cnc(Nc3ccc(N4CCNCC4)cn3)nc2n(C2CCCC2)c1=O [Palbociclib] (partner 0.5 µM)
Outline: as §1

Trametinib + Lapatinib = compound: CC(=O)Nc1cccc(-n2c(=O)n(C3CC3)c(=O)c3c(Nc4ccc(I)cc4F)n(C)c(=O)c(C)c32)c1 [Trametinib] + CS(=O)(=O)CCNCc1ccc(-c2ccc3ncnc(Nc4ccc(OCc5cccc(F)c5)c(Cl)c4)c3c2)o1 [Lapatinib] (partner 2 µM)
Outline: as §1

[2] = compound: CN1C=C(C2=CC=CC=C21)/C=C\3/C4=C(C=CC=N4)NC3=O + COc1cc2c(Oc3ccc(NC(=O)C4(C(=O)Nc5ccc(F)cc5)CC4)cc3F)ccnc2cc1OCCCN1CCOCC1 [Foretinib] (partner 0.25 µM)
Outline: as §1

Cell Line	relative viability ([1]; first compound 0.02 µM)	relative viability ([1]; first compound 0.06325 µM)	relative viability ([1]; first compound 0.2 µM)	relative viability ([1]; first compound 0.6325 µM)	relative viability ([1]; first compound 2 µM)	relative viability (Trametinib + Palbociclib; first compound 0.0025 µM)	relative viability (Trametinib + Palbociclib; first compound 0.007906 µM)	relative viability (Trametinib + Palbociclib; first compound 0.025 µM)	relative viability (Trametinib + Palbociclib; first compound 0.07906 µM)	relative viability (Trametinib + Palbociclib; first compound 0.25 µM)	relative viability (Trametinib + Lapatinib; first compound 0.0025 µM)	relative viability (Trametinib + Lapatinib; first compound 0.007906 µM)	relative viability (Trametinib + Lapatinib; first compound 0.025 µM)	relative viability (Trametinib + Lapatinib; first compound 0.07906 µM)	relative viability (Trametinib + Lapatinib; first compound 0.25 µM)	relative viability ([2]; first compound 0.02 µM)	relative viability ([2]; first compound 0.06325 µM)	relative viability ([2]; first compound 0.2 µM)	relative viability ([2]; first compound 0.6325 µM)	relative viability ([2]; first compound 2 µM)
H3255	0.935	0.843	0.704	0.701	0.655	0.339	0.356	0.357	0.342	0.365	0.246	0.188	0.269	0.201	0.236	1.26	0.954	0.72	0.742	0.899
NCI-H2126	1.19	1.15	1.09	1.16	1.12	0.331	0.346	0.33	0.304	0.349	0.721	0.675	0.46	0.703	0.718	1.13	1.12	1.22	0.867	1.11
HCC-366	0.892	0.985	1.08	1.16	1.08	0.307	0.287	0.137	0.0839	0.0678	0.88	0.938	0.614	0.58	0.161	0.934	1.01	0.886	0.916	0.896
LU99A	1.16	1.09	1.09	1.13	0.964	0.401	0.436	0.335	0.355	0.243	0.866	0.911	0.719	0.674	0.267	0.637	0.699	0.759	0.845	0.835
HOP-62	1.05	0.746	0.285	0.535	0.529	0.505	0.444	0.397	0.231	0.158	0.949	0.903	0.387	0.39	0.104	1.11	1.17	1.22	1.13	1.12
HCC-15	0.972	0.939	1.09	1.09	1.18	0.704	0.427	0.307	0.232	0.222	0.806	0.461	0.572	0.328	0.223	0.947	0.935	1.03	1.01	0.998
HARA	1.06	1.09	0.87	1.18	1.14	0.236	0.202	0.205	0.192	0.198	0.585	0.583	0.541	0.513	0.509	0.94	0.68	–	0.818	0.848
NCI-H1355	1.1	1.16	1.03	0.958	0.983	0.353	0.321	0.217	0.225	0.224	0.838	0.767	0.369	0.532	0.4	0.957	0.893	0.958	0.772	0.766
NCI-H727	0.923	0.564	0.646	1.24	1.32	0.577	0.513	0.41	0.382	0.384	0.606	0.415	0.291	0.297	0.216	0.7	0.664	0.878	0.817	0.665
NCI-H520	0.6	0.432	0.653	0.578	0.667	0.217	0.238	0.199	0.158	0.232	0.855	0.912	0.756	0.68	0.428	0.639	0.773	0.847	0.717	0.937
NCI-H838	0.79	0.769	0.835	0.785	0.818	0.207	0.183	0.162	0.159	0.202	0.846	0.933	–	0.634	0.428	0.778	0.853	1.03	0.894	0.92
HCC-44	0.888	0.8	0.858	0.756	0.847	0.974	1.01	1.08	1.03	1.02	0.996	0.868	0.929	0.701	0.493	–	–	–	–	–
HCC-827	0.898	1.02	–	1.03	1.03	0.461	0.395	0.423	0.296	0.289	0.191	0.164	0.178	0.208	0.228	0.851	1.01	–	1.18	0.893
SW 1573	1.02	0.904	1.11	1.11	1	0.36	0.301	0.298	0.158	0.17	0.875	0.925	0.769	0.82	0.56	0.995	0.925	0.894	0.975	0.822
NCI-H2023	1.09	0.903	0.268	0.958	1.04	0.348	0.3	0.24	0.196	0.119	0.947	0.356	0.383	0.579	0.181	0.841	0.837	–	0.924	0.746
EPLC-272H	0.959	0.704	–	0.918	0.873	0.293	0.303	0.262	0.207	0.239	0.911	0.56	0.493	0.609	0.125	0.564	0.677	0.603	–	0.663
